Tests used:
[1] = test system: Rhizoctonia solani; test: Limit concentration of soil-fungicidal effectiveness, Rhizoctonia solani, infested soil seeded with peas (Example 1); assay type: in vivo; conditions: soil, 480 h, 20 to 23 days, 22°-25° C, read-out: Limit concentration of the fungicidal effectiveness
Method: Limit concentrations of the soil-fungicidal effectiveness at homogeneous mixture of the products with the infested soil. Basic condition in the evaluation are a sound root formation without fungus necroses and germination of the seed of at least 90% compared with the result obtained in steamed soil. Per concentration there were seeded 25 grains of peas of the variety "Miracle of Kelvedon" (marrow pea) without a waiting period. The cultivation time in the tests was 20 to 23 days at a temperature of 22°-25° C. Four commercial products were included in the test series.
Rhizoctania solani: -- Steamed compost soil was inoculated with mycelium of Rhizoctonia solani.

[2] = test system: Meloidogyne incognita; test: Nematocidal action, infested compost soil, cucumber seeds (Example 8); assay type: in vivo; conditions: 30 days
Method: The products as 20% powder preparations were homogeneously admixed with a compost soil heavily infested by root gal nematodes. Without a waiting period, 20 cucumber seeds per concentration were seeded. After a cultivation time of 30 days at a temperature of 23°-25° C, the nematocidal action was evaluated by counting the root galls formed in the waterbath. The following table states the reduction of attack in percent. In the control, an average of 90 root galls per seedling had formed.

[3] = test system: Fusarium oxysporum f. callistephi; test: Fusarium infested compost soil, Callistephus chinesis seedlings (Example 5); assay type: in vivo; conditions: of 4 seedlings
From the text: Steamed compost soil was inoculated with a spore suspension of Fusarium oxysporum f. callistephi. After homogeneous mixture of the products with the infested soil, the products were present as 20% powder preparations, and after a waiting period of 8 days, there were set out per concentration 4 seedlings of Callistephus chinesis, master aster "Sun Ray" as host plants.

[4] = test system: Botrytis cinerea; test: Agar test (Example 7), Botrytis; assay type: cell-based; conditions: 10 ppm; 5 days at 22° C; control 100
Method: (§1) The fungicidal action of the agents according to the invention was tested in artificial nutrient media against plant-pathogenic fungi in Petri dishes (agar test). The procedure was to sterilize the medium consisting of 2% malt extract and 1.5% agar-agar powder. Before the solidification of the medium, the active substances were added to it, mixing thoroughly, so that the medium received 10 parts of active substance per million (ppm). After the solidification of the medium, the latter was inoculated with a platinum dropper which contained 100 spores each of the fungi to be tested, and after five days at 22° C, an evaluation was made by measuring the diameter of the colonies in mm.

[5] = test system: Helminthosporium sativum; test: Agar test (Example 7), Helminthosporium; assay type: cell-based; conditions: 10 ppm; 5 days at 22° C; control 100
Method: as §1

[6] = test system: Stemphylium ilicis; test: Agar test (Example 7), Stemphylium; assay type: cell-based; conditions: 10 ppm; 5 days at 22° C; control 100
Method: as §1

[7] = test system: Asperqilus niger; test: Agar test (Example 7), Aspergillus; assay type: cell-based; conditions: 10 ppm; 5 days at 22° C; control 100
Method: as §1

[8] = test system: Rhizoctonia solani; test: Rhizoctonia solani infested compost soil, marrow peas (Example 3); assay type: in vivo; conditions: for Weight of fresh plant: 3 weeks; for Number of sound peas after 3 wks.: of 25 grains
From the text: Steamed compost soil was inoculated with mycelium of Rhizoctonia solani. After homogeneous mixture of the products with the infested soil, the products were present in the form of 20% powder preparations, the seeding of 25 grains of marrow peas of the variety "Miracle of Kelvedon" per concentration was effected without waiting period in clay dishes holding 1 liter of soil. The table lists the number of germinated sound peas, the weight of the fresh plant, and a root evaluation after a cultivation period of three weeks at 22°-25° C.

[9] = test system: Colletotrichum gloeosporioides; test: Agar test (Example 7), Colletotrichum; assay type: cell-based; conditions: 10 ppm; 5 days at 22° C; control 100
Method: as §1

[10] = test system: Pythium ultimum; test: Pythium ultimum infested compost soil, marrow peas (Example 2); assay type: in vivo; conditions: 200 mg active ingr. per liter of soil
From the text: Steamed compost soil was inoculated with mycelium of Pythium ultimum.

[11] = 50 mg active ingredient per liter of soil
[12] = 100 mg active ingredient per liter of soil
[13] = 10 mg active ingr. per liter of soil
[14] = 20 mg active ingr. per liter of soil
[15] = 30 mg active ingr. per liter of soil

| SMILES | minimal effective concentration [1] | Nematocidal action in % (reduction of attack) ([2]; 40 mg per liter of soil) | Nematocidal action in % (reduction of attack) ([2]; 60 mg per liter of soil) | Number of attacked plants after 3 weeks [3, 11] | Number of attacked plants after 3 weeks [3, 12] | diameter of the colonies [4] | diameter of the colonies [5] | diameter of the colonies [6] | diameter of the colonies [7] | Weight of fresh plant [8, 13] | Number of sound peas after 3 wks. [8, 13] | Weight of fresh plant [8, 14] | Number of sound peas after 3 wks. [8, 14] | Weight of fresh plant [8, 15] | Number of sound peas after 3 wks. [8, 15] | diameter of the colonies [9] | Weight of fresh plant ([10]; 3 weeks) | Number of sound peas after 3 wks. ([10]; of 25 grains) |
| --- | --- | --- | --- | --- | --- | --- | --- | --- | --- | --- | --- | --- | --- | --- | --- | --- | --- | --- |
| CC[S+]([O-])c1nnc(C(Cl)Cl)s1 (stereo not shown) [Compound 4, 2-dichloromethyl-5-ethylsulfinyl-1,3,4-thiadiazole] | 20 µg/mL | 96% | 99% | – | – | – | – | – | – | – | – | – | – | – | – | – | – | – |
| CCC[S+]([O-])c1nnc(C(Cl)Cl)s1 (stereo not shown) [Compound 5, 2-dichloromethyl-5-propylsulfinyl-1,3,4-thiadiazole] | 20 µg/mL | 90% | 98% | – | – | – | – | – | – | – | – | – | – | – | – | – | – | – |
| CC[S+]([O-])c1nnc(C(Cl)(Cl)Cl)s1 (stereo not shown) [Compound 9, 2-trichloromethyl-5-ethylsulfinyl-1,3,4-thiadiazole] | 10 µg/mL | – | – | 0 | 0 | 0 mm | 0 mm | 0 mm | 0 mm | 18 g | 22 | 16 g | 22 | 17 g | 23 | 0 mm | – | – |
| CCS(=O)(=O)c1nnc(C(Cl)Cl)s1 [Compound 18, 2-dichloromethyl-5-ethylsulfonyl-1,3,4-thiadiazole] | 100 µg/mL | 61% | 90% | – | – | 13 mm | 0 mm | 0 mm | 0 mm | – | – | – | – | – | – | 41 mm | – | – |
| CCCS(=O)(=O)c1nnc(C(Cl)Cl)s1 [Compound 19, 2-dichloromethyl-5-propylsulfonyl-1,3,4-thiadiazole] | 50 µg/mL | 72% | 82% | 0 | 0 | 0 mm | 0 mm | 0 mm | 0 mm | – | – | – | – | – | – | 0 mm | – | – |
| CCS(=O)(=O)c1nnc(C(Cl)(Cl)Cl)s1 [Compound 22, 2-trichloromethyl-5-ethylsulfonyl-1,3,4-thiadiazole] | 50 µg/mL | – | – | 0 | 0 | 0 mm | 0 mm | 0 mm | 0 mm | – | – | – | – | – | – | 0 mm | – | – |
| CCCS(=O)(=O)c1nnc(C(Cl)(Cl)Cl)s1 [Compound 23, 2-trichloromethyl-5-propylsulfonyl-1,3,4-thiadiazole] | 30 µg/mL | – | – | – | – | 0 mm | 0 mm | 0 mm | 0 mm | 9 g | 13 | 17 g | 21 | 20 g | 24 | 0 mm | – | – |
| CC(C)S(=O)(=O)c1nnc(C(Cl)(Cl)Cl)s1 [Compound 24, 2-trichloromethyl-5-isopropylsulfonyl-1,3,4-thiadiazole] | 30 µg/mL | – | – | – | – | 0 mm | 0 mm | 0 mm | 0 mm | – | – | – | – | – | – | 0 mm | – | – |
| CCCCS(=O)(=O)c1nnc(C(Cl)(Cl)Cl)s1 [Compound 25, 2-trichloromethyl-5-butylsulfonyl-1,3,4-thiadiazole] | 25 µg/mL | – | – | 0 | 0 | 0 mm | 0 mm | 0 mm | 0 mm | – | – | – | – | – | – | 0 mm | – | – |
| CCCCCS(=O)(=O)c1nnc(C(Cl)(Cl)Cl)s1 [Compound 26, 2-trichloromethyl-5-amylsulfonyl-1,3,4-thiadiazole] | 25 µg/mL | – | – | – | – | 0 mm | 0 mm | 0 mm | 0 mm | – | – | – | – | – | – | 0 mm | – | – |
| CCCCCCS(=O)(=O)c1nnc(C(Cl)(Cl)Cl)s1 [Compound 27, 2-trichloromethyl-5-hexylsulfonyl-1,3,4-thiadiazole] | 25 µg/mL | – | – | – | – | 0 mm | 0 mm | 0 mm | 0 mm | – | – | – | – | – | – | 0 mm | – | – |
| CCCCCCCS(=O)(=O)c1nnc(C(Cl)(Cl)Cl)s1 [Compound 28, 2-trichloromethyl-5-heptylsulfonyl-1,3,4-thiadiazole] | 200 µg/mL | – | – | – | – | 0 mm | 0 mm | 0 mm | 0 mm | – | – | – | – | – | – | 0 mm | – | – |
| CCCCCCCCS(=O)(=O)c1nnc(C(Cl)(Cl)Cl)s1 [Compound 29, 2-trichloromethyl-5-octylsulfonyl-1,3,4-thiadiazole] | > 200 µg/mL | – | – | – | – | 18 mm | 0 mm | 0 mm | 19 mm | – | – | – | – | – | – | 0 mm | – | – |
| CS(=O)(=O)c1nnc(C(Br)Br)s1 [Compound 32, 2-dibromomethyl-5-methylsulfonyl-1,3,4-thiadiazole] | 50 µg/mL | – | – | – | – | 0 mm | 0 mm | 0 mm | 0 mm | – | – | – | – | – | – | 0 mm | – | – |
| S=C([S-])NCCNC(=S)[S-].[Zn+2] [Zinc ethylene-bis-dithiocarbamate, zinc-ethylene-bis-dithiocarbamate, reference compound] | – | – | – | – | – | 36 mm | 50 mm | 55 mm | 78 mm | – | – | – | – | – | – | 81 mm | 7 g | 14 |
